According to article PMC9289467, “A Novel Multifunctional 5,6-Dimethoxy-Indanone-Chalcone-Carbamate Hybrids Alleviates Cognitive Decline in Alzheimer’s Disease by Dual Inhibition of Acetylcholinesterase and Inflammation” (Frontiers in Aging Neuroscience, 2022):

What was measured:
[1] = Single-dose pharmacokinetics in mice (plasma and brain, UPLC-TSQ/MS); type: in vivo, C57BL/6J mice; details: mouse
Experimental: To determine the pharmacokinetics of AP5 in mice, the mice were administered a single dose of AP5 by i.v. and oral gavage dose routes. The plasma and brain homogenate were detected by UPLC-TSQ/MS(Thermo Fisher Scientific, Waltham, MA, United States). The plasma drug concentrations were analyzed for PK data by DAS (Drug and Statistics) Version 3.0 (BioGuider Corporation, Shanghai, China). Bioavailability (F%) after oral administration was calculated as AUCINF p.o./AUCINF i.v./4 × 100. AUCINF p.o. and AUCINF i.v. represent the area under the plasma concentration–time curve extrapolated to infinity after single-dose per os and intravenous injection, respectively. The extent of brain penetration was measured by the brain-to-plasma distribution ratio (B/P). The B/P value was calculated as: AUCINFbrain/AUCINF plasma × 100. AUCINF brain represents the area under the brain concentration–time curve extrapolated to infinity after a single-dose per os.
We next determine the pharmacokinetic profile of AP5 in male C57BL/6J mice given a single intravenous (i.v.) dose of 10 mg/kg or single per os (p.o.) dose of 40 mg/kg, respectively. […] Importantly, we determined AP5 in the brain homogenate with the highest concentration of 95.3 ng/mL at 2 h (Figures 1D,E). […]
Supplementary materials and methods
Prepations ofspecimen for pharmacokinetics analysis
24 h afterdosing. Brains were collected at0, 0.25, 0.5,2, 4,8 and 24 h after administration.Plasma extractions were performed by adding 90 μL methanol and 2 μL internalstandard letrozole (500 ng/mL) to a30 µL plasma sample. Brain samples were homogenized in 1 mL PBS per gram brain tissueby handheld homogenizer.
Then 90 μL methanol and 2 μL letrozolewere added to 30 µl brainhomogenates. The samples were vortexed for 3 min and centrifuged 15 min at25,000 g.The plasma and brainhomogenate were analyzed by UPLC-TSQ/MS (Thermo Fisher Scientific, Waltham, MA, USA). Samples were compared to a calibrationcurve prepared ina similarmanner by spiking blank controlplasma or homogenate with standards prepared inmethanol and then extractedas above. […]

[2] = target: T1, Aβ40 oligomers (Homo sapiens, UniProt P05067); experiment: Aβ40 self-oligomerization dot blot (A11 antibody); type: biochemical; details: oligomer-specific antibody A11
T1 construct: purchased Invitrogen 03-136
T1 sequence (P05067 672-711 limits assumed): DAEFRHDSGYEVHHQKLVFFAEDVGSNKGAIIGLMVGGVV
Experimental: The formation of Aβ40 or Aβ42 oligomers was monitored by dot blot with oligomer-specific antibody. Briefly, the resulting Aβ film was dissolved in ddH2O to form a 100 μM solution, and then the oligomerization reaction ([Kayed et al., 2003]) was initiated in absence or presence of different concentrations of AP5. An aliquot (2 μL) of each solution was dripped on a nitrocellulose membrane. The membrane was blocked with 5% non-fat milk in TBS for 1 h, incubated with the anti-β amyloid (MOAB-2, NBP2-13075SS, Novus Biologicals, Colorado, United States), anti-amyloid oligomers (A11, NBP1-97930, Novus Biologicals), or anti-amyloid fibrils (OC, NBP1-97930, Novus Biologicals) antibodies overnight at 4°C. The membrane was then incubated using HRP-conjugated secondary antibodies at room temperature for 1 h and then developed with ECL.

[3] = tested on: Aβ plaque-associated microglia and astrocytes; experiment: Plaque-associated microglia and astrocytes (MOAB-2 with Iba1 or GFAP co-staining); type: in vivo, APP/PS1 mice
Experimental: APP/PS1 mice of ages 6 months were randomly divided into vehicle (APP/PS1, n = 10) and treatment groups (AP5, n = 10), which were intragastrically administered with AP5 (40 mg/kg) once daily for consecutive 5 months. AP5 was dissolved in distilled water containing 1% sodium carboxymethyl cellulose.
The fixed hemibrains were paraffin-embedded and sectioned in the coronal plane. The slices were deparaffinized with xylene and rehydrated by a series of gradient alcohols. Antigen retrieval through microwave boiling was performed with 10 mM sodium citrate solution at pH 6.0. The slices were cooled down to room temperature and then rinsed in PBS solution. […]
(1:100, BAF2655, R&D, Minneapolis, MN, USA). […] For the quantification of Aβ plaque-associated microglia and astrocyte, Iba1- and GFAP-immunopositive cells around plaques were counted. On each slide, ten plaques were randomly determined and the microglia (nuclei) in the immediate vicinity (two times the plaque diameter) of each plaque were counted. For colocalization of PSD95 and synaptophysin, images were analyzed with the puncta analyzer plugin with a minimum pixel specification of 4 in Image Jand thresholding was consistent for every image. […]
anti-synaptophysin (1:1000, 67864-1-lg, Proteintech) overnight at 4°C. […] Densitometric analysis was performed using Quantity One software (Bio-Rad, Berkeley, CA, USA). […]

[4] = male, C57BL/6J, brain homogenate, po, brain, p.o. 40 mg/kg
[5] = male, C57BL/6J, iv, plasma, i.v. 10 mg/kg
[6] = male, C57BL/6J, plasma, iv, 10 mg/kg, i.v. 10 mg/kg
[7] = male, C57BL/6J, plasma, po, 40 mg/kg, p.o. 40 mg/kg
[8] = male, C57BL/6J, po, plasma, p.o. 40 mg/kg

In the case of CCN(C)C(=O)Oc1cccc(/C=C2\Cc3cc(OC)c(OC)cc3C2=O)c1 [AP5, (E)-3-((5,6-dimethoxy-1-oxo-1,3-dihydro-2H-inden-2-ylidene)-methyl)phenylethyl(methyl)carbamate], the “B/P (brain-to-plasma distribution ratio, brain penetration)” value ([1]; AUCINF brain/AUCINF plasma × 100, p.o. 40 mg/kg, 40 mg/kg) is reported as 10.23%, the Cl ([1]; brain, p.o. 40 mg/kg) is reported as 896.2 mL/min/kg and the Vss ([1]; brain, p.o. 40 mg/kg) is reported as 412.6 L/kg. For the same molecule, the AUC(0-inf) [1, 4] was 744 ng·h/mL, the AUC(0-t) [1, 4] was 706 ng·h/mL and the half-life [1, 4] was 5.32 h. The AUC(0-inf) [1, 5] was 2700 ng·h/mL, the AUC(0-t) [1, 5] was 2600 ng·h/mL and the clearance [1, 5] was 125 mL/min/kg. For the same molecule, the half-life [1, 5] was 3.34 h, the Vd ([1]; male, C57BL/6J, iv, plasma, i.v. 10 mg/kg, read-out: Vss) was 36.3 L/kg and the Tmax ([1]; male, C57BL/6J, brain homogenate, po, 40 mg/kg, brain, p.o. 40 mg/kg) was 1.5 h. The Cmax ([1]; male, C57BL/6J, brain homogenate, po, 40 mg/kg, p.o. 40 mg/kg) was 95.4 ng/mL, the Kp ([1]; male, C57BL/6J, brain/plasma, po, 40 mg/kg, AUCINF brain/AUCINF plasma × 100, p.o. 40 mg/kg, read-out: B/P (brain-to-plasma distribution ratio, brain penetration)) was greater than 0.1 and the Cmax [1, 6] was 5440 ng/mL. It also gave a Tmax [1, 6] of 0.083 h, a Cmax [1, 7] of 2090 ng/mL and a Tmax [1, 7] of 2 h. For the same molecule, the bioavailability ([1]; male, C57BL/6J, plasma, oral, AUCINF p.o./AUCINF i.v./4 × 100, p.o. 40 mg/kg, i.v. 10 mg/kg, read-out: F (oral bioavailability)) was 67.2%, the AUC(0-inf) [1, 8] was 7260 ng·h/mL and the AUC(0-t) [1, 8] was 6990 ng·h/mL. It also gave a half-life [1, 8] of 4.72 h, a Cl ([1]; plasma, p.o. 40 mg/kg) of 45.93 mL/min/kg and a Vss ([1]; plasma, p.o. 40 mg/kg) of 18.79 L/kg. For the same molecule, the “levels of oligomeric Aβ40” value [2] was “decreased the levels”, the “number of astrocytes around Aβ plaque” value ([3]; MOAB-2 and GFAP co-staining) was “no statistical difference” and the plaque-associated microglia ([3]; MOAB-2 and Iba1 co-staining) was “increased clustering of microglia surrounding a plaque”.
